Data on five molecules can be found in patent publication US5514703A, “Benzothiophene compounds useful for inhibiting lipoxygenase” (Eli Lilly and Company, priority 1995, dated 1996).

One series deals with MCII cells. Nature of the series: MCII Mast Cell Toxicity Assay (XTT). Particulars: sensitized MCII cells, 4-12 hours, 37° C., read-out: MCII Mast Cell Toxicity IC50. It counts as cell-based, mouse. From the text: MCII Mast Cell Toxicity Assay
This toxicity assay is run in parallel with the MCII mast cell LTC4 assay and serves as an indicator of compound effects on the viability and metabolic activity of the MCII cells. This "toxicity" assay is based on the ability of dehydrogenase enzymes present in viable metabolically active cells to bioreduce the tetrazolium sale XTT yielding a colored, water soluble formazan product. (see, Roehm et al.) "An improved colorimetric assay for cell proliferation and viability utilizing the tetrazolium salt XTT. J. Immunol. Methods 142:257-65 (1991).
A duplicate polystyrene 96-well tissue culture plate (Costar) is set up with sensitized MCII cells, EM95 ascites, media and dilutions of the test compound as described above. The complete media is supplemented with concanavalin A induced culture supernatants from the mouse helper T cell clone D10.G4, as a source of mast cell growth factors.
Wells of the toxicity assay plate are pulsed with 25 μl XTT (Sigma) plus phenazine methosulfate (Aldrich) giving a final concentration of 0.2 mg/ml XTT and 25 μM phenazine methosulfate. The plates are incubated at 37° C. in 10% CO2 for 4-12 hours and then production of the XTT formazan product determined by measuring the optical density of the wells at a wavelength of 450 nm. The positive control on each plate is stimulated MCII cells with dimethyl sulfoxide vehicle alone and the negative control is the same reaction mixture without cells. The background negative control value is subtracted from experimental and positive control values and the data are reported as percent of positive control.

Series [1] deals with TxB2 production in plasma-depleted blood. The experiment in a line: Inhibition of Eicosanoid Production by Plasma-Depleted Blood: TxB2. It counts as cell-based. Particulars: Homo sapiens, read-out: Plasma DPLTD Blood TxB2 IC50. Here is the method:
Inhibition of Eicosanoid Production by Plasma-Depleted Blood
Compounds are evaluated for their ability to inhibit production of leukotriene B4 (LTB4) and thromboxane B2 (TxB2) upon stimulation of human plasma-depleted blood with formyl-methionyl-leucyl-phenylalanine (FMLP) and thrombin. LTB4 is produced by neutrophils and TxB2 by platelets stimulated at their respective receptors with FMLP and thrombin. The assay is carried out in 1 ml deep well polypropylene 96-well plates (Beckman). For the test, ten ml of blood is collected in EDTA at a final concentration of 1.5 mg/ml. Then, 40 ml glucose phosphate buffer containing 0.1% gelatin is added and the suspension centrifuged at 900 g for 10 minutes at room temperature. The supernatant is discarded and the cells washed once with 50 ml buffer before resuspending them in 50 ml Krebs-Ringers-Henseleit Buffer containing 0.1% gelatin, 1 mM CaCl2, 1.1 mM MgCl2 (KRH buffer). Working solutions of test compounds are made by dissolving the material in DMSO at 10 mM and diluting with appropriate amounts of KRH buffer. An agonist solution is made containing 1 μM FMLP (sigma) and 10 units/ml of thrombin in KRH buffer (Enzyme Research Labs). […] The amount of LTB4 and TxB2 produced is determined by the use of a competitive enzyme immunoassay using commercial reagents from Cayman Chemical.

A value given as a limit tells only on which side of the number the result lay.

As for `Oc1ccc(-c2cc3ccc(O)cc3s2)cc1` [Compound B], the CC50 with MCII cells was less than 10 µM.
Regarding `O=C(c1ccc(O)cc1)c1c(-c2ccc(O)cc2)sc2cc(O)ccc12` [Compound D], the concentration for half-maximal inhibition (IC50) in series [1] is more than 9.8 µM.
Consider `O=C(c1ccc(-c2ccccc2)cc1)c1c(-c2ccc(O)cc2)sc2cc(O)ccc12` [Example 1, 6-hydroxyphenyl-2-(p-hydroxyphenyl)-(benzo(B)thien-3-yl)(p-phenyl)phenyl methanone], for which the CC50 in the series with MCII cells was more than 10 µM.
On the same count and under the same terms, under `O=C(c1cccc2ccccc12)c1c(-c2ccc(O)cc2)sc2cc(O)ccc12` [Example 2, 6-hydroxyphenyl-2-(p-hydroxyphenyl)-(benzo(B)thien-3-yl) (α-napthyl)methanone] stands more than 10 µM; under `O=C(c1ccc2ccccc2c1)c1c(-c2ccc(O)cc2)sc2cc(O)ccc12` [Example 3, 6-hydroxyphenyl-2-(p-hydroxyphenyl)-(benzo(B)thien-3-yl)(β-napthyl)methanone], more than 10 µM.
